# Assay results from article PMC12621189, “Optimization of Selective and CNS Penetrant Alkyne-Based TREK Inhibitors: The Discovery and Characterization of ONO-9517601 (VU6022856) and ONO-7927846 (VU6024391)” (Journal of Medicinal Chemistry, 2025).
# Experiments:
# [1] = IV/PO pharmacokinetic study, dog (beagle); format: in vivo; conditions: for clearance: beagle, dog, iv, read-out: CLp; for clearance / Vd / half-life / Cmax: plasma; for clearance / CLp / Vd / half-life: iv 1 mg/kg (10), 0.5 mg/kg (11); for Vd: read-out: Vss; for half-life: read-out: elimination t1/2 (converted); for Cmax / F (%) po: po 1 mg/kg
# DAT = DAT (Homo sapiens, UniProt Q01959); experiment: Functional assay, DAT; format: biochemical
# Sequence of DAT (Q01959 whole entry, species assumed): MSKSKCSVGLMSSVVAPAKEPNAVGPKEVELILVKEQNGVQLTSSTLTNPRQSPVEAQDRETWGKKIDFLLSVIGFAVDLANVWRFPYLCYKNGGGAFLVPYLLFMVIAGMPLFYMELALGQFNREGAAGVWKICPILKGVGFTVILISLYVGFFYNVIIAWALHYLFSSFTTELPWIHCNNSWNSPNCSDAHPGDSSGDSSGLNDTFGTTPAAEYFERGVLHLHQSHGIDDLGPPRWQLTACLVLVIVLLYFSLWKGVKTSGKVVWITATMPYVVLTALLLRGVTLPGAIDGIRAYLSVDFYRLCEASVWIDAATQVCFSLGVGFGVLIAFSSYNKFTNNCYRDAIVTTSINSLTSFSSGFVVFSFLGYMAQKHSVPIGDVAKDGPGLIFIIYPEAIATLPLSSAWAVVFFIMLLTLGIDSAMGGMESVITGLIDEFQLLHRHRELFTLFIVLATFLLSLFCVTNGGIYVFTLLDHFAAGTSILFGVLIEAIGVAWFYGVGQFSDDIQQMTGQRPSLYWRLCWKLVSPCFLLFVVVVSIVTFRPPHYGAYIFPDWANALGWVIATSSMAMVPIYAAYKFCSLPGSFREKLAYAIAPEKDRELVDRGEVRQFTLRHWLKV
# dopamine transporter DAT = molecular target: T1, dopamine transporter DAT (Homo sapiens, UniProt Q01959); experiment: Radioligand binding, dopamine transporter
# T1 construct: purchased Eurofins
# T1 sequence (Q01959 whole entry): as the sequence (Q01959 whole entry, species assumed) above
# adenosine A3 = molecular target: T2, adenosine A3 (Homo sapiens, UniProt P0DMS8); experiment: Radioligand binding, adenosine A3; conditions: for IC50: follow-up binding; for inhibition at 10 µM: radioligand binding displacement
# T2 construct: purchased Eurofins
# T2 sequence (P0DMS8 1-318): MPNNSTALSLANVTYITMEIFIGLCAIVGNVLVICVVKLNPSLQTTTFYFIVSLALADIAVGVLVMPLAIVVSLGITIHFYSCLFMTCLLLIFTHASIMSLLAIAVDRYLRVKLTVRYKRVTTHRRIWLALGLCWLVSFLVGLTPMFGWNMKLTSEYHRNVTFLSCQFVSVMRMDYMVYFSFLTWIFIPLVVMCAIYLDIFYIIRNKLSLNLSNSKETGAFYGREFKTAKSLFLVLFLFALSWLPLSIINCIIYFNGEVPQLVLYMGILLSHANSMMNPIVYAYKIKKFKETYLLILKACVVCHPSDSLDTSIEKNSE
# TRAAK = TRAAK (Homo sapiens, UniProt Q9NYG8); experiment: K2P family selectivity, TRAAK; format: cell-based
# Sequence of TRAAK (Q9NYG8 whole entry, species assumed): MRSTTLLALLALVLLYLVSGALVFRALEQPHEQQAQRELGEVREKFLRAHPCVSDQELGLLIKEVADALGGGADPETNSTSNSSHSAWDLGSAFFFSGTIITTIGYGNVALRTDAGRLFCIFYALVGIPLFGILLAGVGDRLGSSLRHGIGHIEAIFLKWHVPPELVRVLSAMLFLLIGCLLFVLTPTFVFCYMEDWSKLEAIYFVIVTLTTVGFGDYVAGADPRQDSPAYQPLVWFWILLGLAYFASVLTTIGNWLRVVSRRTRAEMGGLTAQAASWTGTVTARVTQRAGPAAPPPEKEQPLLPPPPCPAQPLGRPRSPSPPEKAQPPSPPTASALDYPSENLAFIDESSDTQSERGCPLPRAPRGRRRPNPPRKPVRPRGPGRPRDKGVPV
# THIK-1 = THIK-1 (Homo sapiens, UniProt Q9HB14); experiment: K2P family selectivity, THIK-1; format: cell-based
# Sequence of THIK-1 (Q9HB14 whole entry, species assumed): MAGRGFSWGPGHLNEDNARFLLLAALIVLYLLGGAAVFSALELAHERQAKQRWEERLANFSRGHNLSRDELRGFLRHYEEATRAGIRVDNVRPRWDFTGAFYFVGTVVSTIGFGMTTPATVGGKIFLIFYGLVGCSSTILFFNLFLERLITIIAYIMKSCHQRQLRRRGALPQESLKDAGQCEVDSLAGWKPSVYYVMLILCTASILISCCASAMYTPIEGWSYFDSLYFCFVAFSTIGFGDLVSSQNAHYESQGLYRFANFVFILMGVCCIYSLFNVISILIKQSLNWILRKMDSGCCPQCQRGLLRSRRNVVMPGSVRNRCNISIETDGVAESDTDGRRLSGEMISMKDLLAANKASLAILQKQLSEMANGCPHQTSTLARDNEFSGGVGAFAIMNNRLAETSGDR
# TASK-1 = TASK-1 (Homo sapiens, UniProt O14649); experiment: K2P family selectivity, TASK-1; format: cell-based
# Sequence of TASK-1 (O14649 whole entry, species assumed): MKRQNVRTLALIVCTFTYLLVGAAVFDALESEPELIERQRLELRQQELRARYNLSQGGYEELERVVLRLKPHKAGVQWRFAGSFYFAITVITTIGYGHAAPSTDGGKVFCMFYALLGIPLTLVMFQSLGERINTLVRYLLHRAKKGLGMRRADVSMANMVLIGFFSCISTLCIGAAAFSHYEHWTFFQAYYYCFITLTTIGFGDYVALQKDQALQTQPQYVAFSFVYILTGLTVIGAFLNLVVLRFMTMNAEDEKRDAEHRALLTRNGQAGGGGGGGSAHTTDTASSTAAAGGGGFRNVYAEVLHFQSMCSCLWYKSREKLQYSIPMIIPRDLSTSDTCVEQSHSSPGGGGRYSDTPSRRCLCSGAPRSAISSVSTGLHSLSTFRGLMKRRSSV
# [2] = Plasma protein binding, human (equilibrium dialysis); format: in vitro ADME; conditions: pH 7.4, read-out: PPB human (converted)
# Protocol: Plasma protein binding and Brain homogenate binding: Determination of fraction unbound (f u) in plasma was conducted in vitro via equilibrium dialysis using HTDialysis (HTD) membrane plates. The top half of the plate was filled with 100 uL of Dubelco’s Phosphate Buffered Saline, pH 7.4 (DPBS). Compounds were diluted into plasma from each species (5 µM final concentration), which was aliquoted in triplicate to the ‘bottom half’ of the prepared HTD plate wells. The HTD plate was sealed and incubated for 6 hours at 37 °C. Following incubation, each well (both top and bottom halves) were transferred (20 µL) to the corresponding wells of a 96-shallow-well (V-bottom) plate. The daughter plates were then matrix-matched (DPBS side wells received equal volume of plasma, and plasma side wells received equal volume of DPBS), and extraction solution (120 µL; acetonitrile containing 50 nM carbamazepine as IS) was added to all wells of both daughter plates to precipitate protein and extract test article. The plates were then sealed and centrifuged (3500 rcf) for 10 minutes at ambient temperature. Supernatant (60 µL) from each well of the daughter plates was then transferred to the corresponding wells of new daughter plates (96-shallow-well, V bottom) containing water (Milli-Q, 60 µL/well), and the plates were sealed in preparation for LC-MS/MS analysis (see LC-MS/MS analysis method below).
# The unbound fraction (f u) was calculated following the equation below, and mean values for each species were calculated from 3 replicates. […]
# Fraction unbound for both plasma and brain samples was determined using Equation 4.
# Equation 4 Determination of fraction unbound in plasma. […]
# MK-801 challenged rat = experiment: MK-801 challenge novel object recognition (NOR), rat; format: in vivo; conditions: for Minimum effective dose (MED), MK-801 challenge NOR: PO, MK-801 0.2 mg/kg IP; for reversal of the MK-801 deficit in NOR: oral, 10 at 1, 3 mg/kg, 11 at 0.3, 1 mg/kg
# TASK-3 = TASK-3 (Homo sapiens, UniProt Q9NPC2); experiment: K2P family selectivity, TASK-3; format: cell-based
# Sequence of TASK-3 (Q9NPC2 whole entry, species assumed): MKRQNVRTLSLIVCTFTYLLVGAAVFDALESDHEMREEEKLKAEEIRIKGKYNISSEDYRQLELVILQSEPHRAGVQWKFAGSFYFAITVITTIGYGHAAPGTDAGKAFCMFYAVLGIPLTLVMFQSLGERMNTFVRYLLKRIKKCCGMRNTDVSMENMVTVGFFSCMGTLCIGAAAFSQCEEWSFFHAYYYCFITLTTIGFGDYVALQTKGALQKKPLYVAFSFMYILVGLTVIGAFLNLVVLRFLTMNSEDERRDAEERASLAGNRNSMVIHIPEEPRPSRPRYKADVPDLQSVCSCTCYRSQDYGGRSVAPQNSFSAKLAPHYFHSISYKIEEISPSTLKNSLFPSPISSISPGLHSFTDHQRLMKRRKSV
# TASK-2 = TASK-2 (Homo sapiens, UniProt O95279); experiment: K2P family selectivity, TASK-2; format: cell-based
# Sequence of TASK-2 (O95279 whole entry, species assumed): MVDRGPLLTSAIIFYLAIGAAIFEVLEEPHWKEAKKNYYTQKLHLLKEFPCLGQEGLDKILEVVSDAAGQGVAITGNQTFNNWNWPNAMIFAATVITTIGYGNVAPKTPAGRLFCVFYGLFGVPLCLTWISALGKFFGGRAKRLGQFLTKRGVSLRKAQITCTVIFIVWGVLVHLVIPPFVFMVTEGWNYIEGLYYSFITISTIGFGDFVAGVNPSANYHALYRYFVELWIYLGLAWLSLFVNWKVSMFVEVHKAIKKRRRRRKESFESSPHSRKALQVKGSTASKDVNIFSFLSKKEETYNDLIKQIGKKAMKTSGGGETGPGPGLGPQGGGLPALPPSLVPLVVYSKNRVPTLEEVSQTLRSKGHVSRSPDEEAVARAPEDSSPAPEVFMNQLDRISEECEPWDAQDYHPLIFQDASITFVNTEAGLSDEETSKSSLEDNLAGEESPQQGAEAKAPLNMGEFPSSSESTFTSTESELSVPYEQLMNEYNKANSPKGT
# TRESK = TRESK (Homo sapiens, UniProt Q7Z418); experiment: K2P family selectivity, TRESK; format: cell-based
# Sequence of TRESK (Q7Z418 whole entry, species assumed): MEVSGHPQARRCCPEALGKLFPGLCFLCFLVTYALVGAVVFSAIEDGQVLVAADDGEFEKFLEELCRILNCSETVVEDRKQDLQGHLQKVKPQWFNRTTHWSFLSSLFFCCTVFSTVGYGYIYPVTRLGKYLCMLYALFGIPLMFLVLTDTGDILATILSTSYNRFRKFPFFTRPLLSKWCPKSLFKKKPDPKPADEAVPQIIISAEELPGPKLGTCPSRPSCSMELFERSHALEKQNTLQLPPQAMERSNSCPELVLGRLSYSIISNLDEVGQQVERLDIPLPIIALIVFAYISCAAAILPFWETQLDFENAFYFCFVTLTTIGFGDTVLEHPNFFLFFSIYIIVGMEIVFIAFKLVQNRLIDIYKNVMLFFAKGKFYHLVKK
# sodium channel site 2 = experiment: Radioligand binding, sodium channel site 2
# [3] = radioligand binding displacement, 10 μM
structure (smiles),measurement,setting,value
"CC(=O)N1CCC(n2ncc(Cl)c2C(=O)Nc2ncc(C#Cc3ccccc3)cc2C)CC1 [Compound 10, 1-(1-Acetylpiperidin-4-yl)-4-chloro-N-(3-methyl-5-(phenylethynyl)pyridin-2-yl)-1H-pyrazole-5-carboxamide]",clearance,[1],< 2 mL/min/kg
same,CLp,[1],1.9 mL/min/kg
same,Vd,[1],5.9 L/kg
same,half-life,[1],56 h
same,Cmax,[1],315 ng/mL
same,F (%) po,[1],97%
same,IC50,DAT,1210 nM
same,IC50,dopamine transporter DAT; follow-up binding,2860 nM
same,inhibition at 10 µM,dopamine transporter DAT; [3],78%
same,IC50,adenosine A3,380 nM
same,inhibition at 10 µM,adenosine A3,98%
same,inhibition at 10 µM,TRAAK,84%
same,THIK-1 inhibition,THIK-1,nothing significant
same,TASK-1 inhibition,TASK-1,nothing significant
same,"fraction unbound at 6 h, 5 µM",[2],0.01
same,"Minimum effective dose (MED), MK-801 challenge NOR",MK-801 challenged rat,1 mg/kg
same,reversal of the MK-801 deficit in NOR,MK-801 challenged rat,significantly reversed the MK-801 deficit
same,inhibition at 10 µM,TASK-3,78%
same,TASK-2 inhibition,TASK-2,nothing significant
same,TRESK inhibition,TRESK,nothing significant
"CC(=O)N1CC[C@@H](n2ncc(Cl)c2C(=O)Nc2ncc(C#Cc3ccc(F)cc3)cc2C)[C@H](F)C1 [Compound 11, 1-((3R,4R)-1-Acetyl-3-fluoropiperidin-4-yl)-4-chloro-N-(5-((4-fluorophenyl)ethynyl)-3-methylpyridin-2-yl)-1H-pyrazole-5-carboxamide]",clearance,[1],< 2 mL/min/kg
same,CLp,[1],1.5 mL/min/kg
same,Vd,[1],7.1 L/kg
same,half-life,[1],76 h
same,Cmax,[1],263 ng/mL
same,F (%) po,[1],100%
same,IC50,adenosine A3,770 nM
same,inhibition at 10 µM,adenosine A3,91%
same,"fraction unbound at 6 h, 5 µM",[2],0.048
same,"Minimum effective dose (MED), MK-801 challenge NOR",MK-801 challenged rat,0.3 mg/kg
same,reversal of the MK-801 deficit in NOR,MK-801 challenged rat,significantly reversed the MK-801 deficit
same,IC50,sodium channel site 2; follow-up binding,9130 nM
same,sodium channel site 2 inhibition at 10 μM,sodium channel site 2; [3],56%
